A short description of data set [1]: Body weight in MV4–11 xenograft study. In kind it is in vivo, mice. As to conditions: 1–10 mg/kg/day oral, 28 days; any tested dose. On the procedure:
Once tumor growth had been confirmed, mice xenografted with MV4–11 cells were monitored for 28 days; mice xenografted with Ba/F3 cells expressing FLT3 mutations were monitored for 7 days. Tumor diameter was measured using a caliper, and tumor volume was determined by calculating the volume of an ellipsoid using the formula: length × width^2 × 0.5. Body weight was measured using a standard balance. Data are expressed as mean ± SEM from n = 6 mice/group (MV4–11) and n = 5 mice/group (Ba/F3).
After tumor establishment, mice were divided into groups such that the mean tumor volume was approximately equal in each group.

The nature of data set [2]: Pharmacokinetics in MV4–11 xenografted nude mice (plasma and tumor). As to conditions: for AUC(0-t) / Cmax / Tmax: nude, mouse; for AUC(0-t): read-out: AUCt, plasma concentration; for Tmax: read-out: Time of maximal plasma concentration. Format: in vivo. How it is done: Tumor samples were also collected from each mouse and tumor weight was measured.

The text below walks through data of PMC5613053 (Investigational New Drugs, 2017).

Structures are written as SMILES. Like-named read-outs stand apart in the source and are kept apart here.

As to `CCc1nc(C(N)=O)c(Nc2ccc(N3CCC(N4CCN(C)CC4)CC3)c(OC)c2)nc1NC1CCOCC1` [gilteritinib], the Body weight result in data set [1] is recorded as “not affected”. Besides, the AUC(0-t) worked out at 25.2 ng·h/mL in data set [2] (plasma, single oral 1 mg/kg); 269 ng·h/mL in data set [2] (plasma, single oral 6 mg/kg); 493 ng·h/mL in data set [2] (plasma, single oral 10 mg/kg). Besides, the Cmax in data set [2] (plasma, single oral 1 mg/kg, read-out: Cmax, plasma concentration) was found to be 6.56 ng/mL; in data set [2] (plasma, single oral 6 mg/kg, read-out: Cmax, plasma concentration) it was 45.9 ng/mL; in data set [2] (plasma, single oral 10 mg/kg, read-out: Cmax, plasma concentration) it was 83 ng/mL; in data set [2] (tumor, single oral 1 mg/kg, read-out: Cmax, intratumor concentration) it was 90.6 ng/g; in data set [2] (tumor, single oral 6 mg/kg, read-out: Cmax, intratumor concentration), 772 ng/g; in data set [2] (tumor, single oral 10 mg/kg, read-out: Cmax, intratumor concentration), 1120 ng/g. The Tmax is 2 h in data set [2] (plasma, single oral 1 mg/kg); 2 h in data set [2] (plasma, single oral 6 mg/kg); 2 h in data set [2] (plasma, single oral 10 mg/kg). Besides, the “Concentration in tumors compared with plasma” value in data set [2] (single oral 1, 6, 10 mg/kg, each time point) is reported as “higher than that in plasma at each time point”. Further, the “AUCt, intratumor concentration” value in data set [2] (tumor, single oral 1 mg/kg) was found to be 1186 ng·h/g; in data set [2] (tumor, single oral 6 mg/kg), 12880 ng·h/g; in data set [2] (tumor, single oral 10 mg/kg) it was 17330 ng·h/g. The “Time of maximal intratumor concentration” value came to 4 h in data set [2] (tumor, single oral 1 mg/kg); 8 h in data set [2] (tumor, single oral 6 mg/kg); 8 h in data set [2] (tumor, single oral 10 mg/kg).
